# Measurements reported in publication PMC10464297, “Reevaluation of bromodomain ligands targeting BAZ2A” (Protein Science : A Publication of the Protein Society, 2023).
# “Also recorded” adds a separate entry of the source.
# How the values were obtained:
# TAF1L = conditions: ref Chen et al., [2016]; read-out: K D TAF1L; cited from earlier work
# 22Rv1 spheroids = experiment: Spheroid growth (3D), 22Rv1; format: cell-based
# Method: (§1) Cell cultures, proliferation assay and spheroid gro wth
# PC3 and 22Rv1 cells were cultured in RPMI 1640 medium containing 10% FBS, 1% penicillin-streptomycin and 2 m M L-glutamine. All cells were regularly tested for mycoplasma contamination. […]
# Spheroids were obtained by plating PC3 and 22Rv1 cells in low -adhesion round bottom 96 -well plates. For 22Rv1, 2500 cells/well were seeded in 200 µl RPMI 1640; for PC3, 250 cells/well were seeded in 200 µl RPMI 1640 supplemented with 1.5% Matrigel. After seeding, the cells were centrifuged for 10 min at 1200 x g at 4°C. Spheroids were given 48 hours to form after seeding before adding the treatment or the carrier (0.1% DMSO). Medium supplemented with treatment/carrier was changed every 48 hours, for a total of 32 days for 22Rv1 and 16 days for PC3. Each spheroid was imaged in brightfield every day or every other day (after day 20), using a Leica DM IL microscope […]
# (§2) equipped with a Leica DFC450C digital camera. The area of each spheroid was measured using ImageJ and the average area for each condition was calculated. The growth rate was analysed using the segmental linear regression algorithm of GraphPad Prism. The appropriateness of the model was evaluated by considering the R square values and the Replicates test (Suppl. Table 6). […]
# BRD9 = conditions: ref Chen et al., [2016]; read-out: K D BRD9; cited from earlier work
# TNBC cells = tested on: TNBC cells; set-up: method as in Bevill et al., [2019]; conditions: single agent; ref Bevill et al., [2019]; cited from earlier work
# [1] = tested on: PC3 (AR‐negative) PCa cells; experiment: 2D proliferation assay (resazurin), PC3; format: cell-based
# Method: (§3) Cell cultures, proliferation assay and spheroid gro wth […]
# streptomycin and 2 m M L-glutamine. All cells were regularly tested for mycoplasma contamination.
# For the proliferation assay, cells were counted with a hemocytometer and seeded in triplicates in 96-well plates (4 .5x10^3 cells/well for 22Rv1 and 2.0x103 for PC3) and let adhere overnight at 37°C, […]
# (§4) transfected with siRNA for BAZ2A , RLUC or KIF11, as detailed below. The cells were incubated for 1, 3, 6 (PC3) and 9 days (22Rv1) and the medium containing either the carrier or the inhibitors was replaced every 3 day s. Cell proliferation and viability were determined at day 1, 3, 6 and 9 by adding 10% resazurin sodium salt solution (0. 03 mg/ml powder from Sigma -Aldrich) directly into each well and incubating them for 4h at 37°C, 5% CO 2. The absorbance at 570/600 nm was measured using a Varioskan plate reader. The reduction of the resazur in sodium salt was calculated using the formula: (Abs x – Abs 0. 1%DMSO day1)/(Abs 0. 1%DMSO day9 - Abs 0. 1%DMSO day1). The growth rate was analysed using the linear regression algorithm of GraphPad Prism. […]
# PC3 spheroids = experiment: Spheroid growth (3D), PC3; format: cell-based
# Method: as §3
# streptomycin and 2 m M L-glutamine. All cells were regularly tested for mycoplasma contamination. […]
# Spheroids were obtained by plating PC3 and 22Rv1 cells in low -adhesion round bottom 96 -well […]
# After seeding, the cells were centrifuged for 10 min at 1200 x g at 4°C. Spheroids were given 48 hours to form after seeding before adding the treatment or the carrier (0.1% DMSO). Medium supplemented with treatment/carrier was changed every 48 hours, for a total of 32 days for 22Rv1 and 16 days for PC3. Each spheroid was imaged in brightfield every day or every other day (after day 20), using a Leica DM IL microscope […]
# as §2
# melatonin receptor = tested on: melatonin receptor; set-up: method as in https://www.thesgc.org/chemical-probes/GSK2801; conditions: panel of receptors, channels and transporters; ref https://www.thesgc.org/chemical-probes/GSK2801; cited from earlier work
# BAZ2A = conditions: ref Chen et al., [2016]; cited from earlier work
# [2] = tested on: 22Rv1 (AR‐positive) PCa cells; experiment: 2D proliferation assay (resazurin), 22Rv1; format: cell-based
# Method: as §1
# PC3 and 22Rv1 cells were cultured in RPMI 1640 medium containing 10% FBS, 1% penicillin-streptomycin and 2 m M L-glutamine. All cells were regularly tested for mycoplasma contamination.
# For the proliferation assay, cells were counted with a hemocytometer and seeded in triplicates in 96-well plates (4 .5x10^3 cells/well for 22Rv1 and 2.0x103 for PC3) and let adhere overnight at 37°C, 5% CO2. The following day, the medium was replaced with RPMI 1640 containing either the carrier […]
# as §4
# [3] = 3D setting, GSK2801 25 μM, BAZ2‐ICR 25 μM, BI9564 20 μM
smiles,measurement,setting,value
CCCOc1ccn2c(C(C)=O)cc(-c3ccccc3S(C)(=O)=O)c2c1 [GSK2801],Kd,TAF1L,3.2 µM
same,effect on growth of 22Rv1 spheroids,22Rv1 spheroids; [3],similarly affect the growth of 22Rv1 cells; also recorded: slowed PC3 and 22Rv1 cellular growth
same,slope2 (segmental linear regression of spheroid growth),"22Rv1 spheroids; 22Rv1 spheroids, 25 µM, after X0 = day 9",13213
same,slope1 (segmental linear regression of spheroid growth),"22Rv1 spheroids; 22Rv1 spheroids, 25 µM, before X0 = day 9",13070
same,Kd,BRD9,1200 nM
same,effect on TNBC cells,TNBC cells,did not affect TNBC cells
same,effect on 2D growth of PC3 cells,"[1]; 2D‐cell culture, PC3",significantly reduced growth rate at the highest concentrations tested; also recorded: reduces 2D growth
same,effect on viability of PC3 cells,"[1]; 2D‐cell culture, PC3",without affecting viability
same,"Slope (best-fit, linear regression of growth curve)","[1]; PC3, 0.5 µM","0,1514"
same,"Slope (best-fit, linear regression of growth curve)","[1]; PC3, 2.5 µM","0,1455"
same,"Slope (best-fit, linear regression of growth curve)","[1]; PC3, 5 µM","0,1396"
same,"Slope (best-fit, linear regression of growth curve)","[1]; PC3, 10 µM","0,1068"
same,"Slope (best-fit, linear regression of growth curve)","[1]; PC3, 25 µM","0,08390"
same,effect on growth of PC3 spheroids,PC3 spheroids; [3],only GSK2801 is effective on PC3 cells; also recorded: slowed PC3 and 22Rv1 cellular growth
same,slope2 (segmental linear regression of spheroid growth),"PC3 spheroids; PC3 spheroids, 25 µM, after X0 = day 6",19191
same,slope1 (segmental linear regression of spheroid growth),"PC3 spheroids; PC3 spheroids, 25 µM, before X0 = day 6",5023
same,interference with melatonin receptor,melatonin receptor,strongly interferes
same,effect on 2D growth of 22Rv1 cells,"[2]; 2D‐cell culture, 22Rv1",significantly reduced growth rate at the highest concentrations tested; also recorded: reduces 2D growth
same,effect on viability of 22Rv1 cells,"[2]; 2D‐cell culture, 22Rv1",without affecting viability
same,"Slope (best-fit, linear regression of growth curve)","[2]; 22Rv1, 0.5 µM","0,1090"
